Test results published in the METLIN SMRT retention time set (Domingo-Almenara et al. 2019).

Assay: gradient 5% acetonitrile 3 min, to 50% in 2 min, to 85% in 15 min, held 3 min, 100 µL/min
Settings: column: Zorbax Extend-C18 2.1 x 50 mm; eluents: water / acetonitrile, 0.1% formic acid
In short: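 Pure standards were run in mixtures of ~100 molecules by HPLC coupled to a quadrupole time-of-flight mass spectrometer. The column was a Zorbax Extend-C18 (2.1 × 50 mm, 1.8 μm) at 100 μL/min, with water and acetonitrile each containing 0.1% formic acid, in positive and negative ionization mode. Dead and dwell volumes were 40 μL and 900 μL. Retention time was taken from computationally picked adduct peaks, each manually inspected, with data collected over 3 months.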

Compound	RP-LC retention time [s]
Cc1ccc(C)c(CNC(=O)c2ccc(-c3nc4cccnc4n3C3CCCCC3)cc2)c1	1120
COc1ccccc1-c1noc(CN2C(=O)COc3ccccc32)n1	880
CCN1CCN(C(=O)C2CCN(S(=O)(=O)c3ccc4c(c3)sc(=O)n4C)CC2)CC1	551
Cc1cccc(C(=O)Nc2nc(-c3ccc4c(c3)NC(=O)CO4)c(C)s2)c1	918
Fc1ccc(Nc2nc(-c3cccc(Cl)c3)cs2)nc1	1190
Cc1ccc(C(=O)N2CCCCCCN(C)C(=O)[C@@H]3CCC[C@@H]32)s1	912
CCCNC(=O)CCc1ccc2nc(-c3ccccc3)[nH]c2c1	593
CCCN1CCc2cc(O)cc3c2[C@H]1Cc1ccc(O)c(O)c1-3	646
COc1cc(NC(=O)Cn2ccc3ccc(-c4nnc(C)o4)cc32)cc(OC)c1OC	726
COCCn1cc(CCNC(=O)Nc2cc(C)ccc2C)c2cccnc21	752
Cc1noc(-c2nc(-c3cccnc3)no2)n1	736
c1ccc(-c2nc(-c3ccccn3)nc(-c3ccccn3)n2)nc1	644
Cc1noc(C)c1S(=O)(=O)N1CCC(c2noc(-c3cccnc3)n2)C1 (stereo not drawn)	796
CCCN1C(=O)C(C)(C(=O)Nc2ccc(OCC)cc2)Oc2cccnc21 (stereo not drawn)	966
CCC(=O)NCc1nc2c(n1C)CN(S(=O)(=O)c1ccc(F)cc1F)CC2	600
O=C(Cn1nc2n(c1=O)CCCC2)NCc1ccc(F)cc1	642
O=C(N[C@H]1C[C@@H]2C[C@H]1CN2S(=O)(=O)c1cccc2nsnc12)c1ccccc1	722
CCCS(=O)(=O)c1nc2ccc(NS(=O)(=O)c3ccc4c(c3)oc(=O)n4C)cc2s1	847
Cc1ccc(C(=O)NCCc2sccc2C)cc1NC1=NC2CS(=O)(=O)CC2S1 (stereo not drawn)	685
COc1ccc(N2CCN(C(=O)C3CCCN(c4cnc5nccnc5c4)C3)CC2)cc1 (stereo not drawn)	737

Compound	RP-LC retention time [s]
CCc1ccc(CNC(=O)c2nc3cccnc3n(CC)c2=O)cc1	915
COc1ccccc1NC(=O)Cc1csc2nc(-c3ccccc3)cn12	786
O=C(c1csc(N2CCN(c3ccc(F)cc3)CC2)n1)N1CCCCC1	1000
CO[C@@H]1COCC[C@@H]1N[C@@H]1CC[C@@](C(=O)N2CCc3ncc(C(F)(F)F)cc3C2)(C(C)C)C1	709
Cc1nnc2cc(N3CCN(C(=O)Nc4ccc(F)cc4F)CC3)cnn12	597
CCN1CCOc2ccc(NC(=O)c3ccc4c(c3)OCO4)cc2C1=O	675
O=C(CSc1ncnc2ccccc12)NCc1ccccc1	708
CCn1cc(C)c(C(=O)O)c1CC(=O)NCc1ccco1	702
Fc1ccc(C2Cn3nnc(-c4nc(-c5ccccn5)no4)c3CO2)cc1 (stereo not drawn)	854
CCN1CCN(c2ccc(-c3nc(-c4cccc(C)c4)no3)cn2)CC1	734
CC(C)NC[C@@H](C(=O)N1CCN(c2ncnc3c2[C@H](C)C[C@H]3O)CC1)c1ccc(Cl)cc1	610
CCCc1ccc(S(=O)(=O)N2CCc3c(c(-c4nnc(-c5ccccc5)o4)nn3C)C2)cc1	1090
O=c1ccc(-c2ccc3c(c2)OCO3)nn1CCc1nc(-c2ccncc2)no1	730
Cc1cc(-c2nnc3sc(COc4ccc(C(C)(C)C)cc4)nn23)n[nH]1	967
COc1ccccc1CC(=O)N1CCN(c2ccc(-c3ccccn3)nn2)CC1	598
Cn1cc(-c2cnn3c(N)c(Br)c(C4CCCNC4)nc23)cn1 (stereo not drawn)	613
O=C(CCSc1ccccc1)NCCn1nc(-c2ccc(Cl)cc2)ccc1=O	600
COc1cc(OC)c(NC(=O)NC2CCN(c3ccc(F)c(C)c3)C2=O)cc1Cl (stereo not drawn)	888
CCOc1cc(=O)n2c(c1C(=O)NCCCOC(C)C)CCCCC2	646
Cc1nc(C)c(C(=O)Nc2nc(-c3ccccc3)cs2)s1	886

Next, values leading:

RP-LC retention time [s]	Compound
652	CCOC(=O)c1cnc(N2CCN(c3cccc(Cl)c3)CC2)c2ccccc12
758	Cc1oc(C2CCN(S(=O)(=O)c3ccccc3)CC2)nc1C(=O)N1CCOCC1
666	CC(C)C(NC(=O)c1ccsc1)C(=O)Nc1nc2ccccc2[nH]1 (stereo not drawn)
1170	Cc1occc1C(=O)Nc1nc(-c2ccc3ccccc3c2)cs1
856	CCOCCOC1CCN(S(=O)(=O)Cc2ccccc2)CC1
639	Cc1cc(NC(=O)C2CCN(C(=O)c3c[nH]c4ccccc34)CC2)no1
959	CCOc1cccc(C2c3[nH]c4ccccc4c3CCN2C(=O)c2ccncc2)c1 (stereo not drawn)
694	COc1ccc(NC(=O)c2cn3c(n2)CSCC3)cc1F
710	COc1ccc(OC)c(CNC(=O)C2CCCN(c3cnc4nccnc4c3)C2)c1 (stereo not drawn)
666	CCCN(C)C(=O)COc1ccc(NC(=O)C2CC2)cn1
1050	O=C(C1CC1)N1CCc2c([nH]c3ccccc23)C1c1ccc(F)cc1 (stereo not drawn)
835	Cc1cccc(CN2N=C(C(=O)N3CCOCC3)S(=O)(=O)c3ccc(C)cc32)c1
643	CNC(=O)c1cc(-c2ccccc2)n[nH]1
858	CCOc1ccccc1NC(=O)N1CCC2(CC1)NC(=O)c1ccc(Cl)cc1N2C
728	Cc1sc2ccn(C)c(=O)c2c1C(=O)N1CCN(c2ccccc2)CC1
630	Cc1cc(NC(=O)C2CCN(C(=O)c3ccco3)CC2)no1
829	CC1CCN(C(=O)c2ccc(OCC3CCCN(C(=O)C4CCCO4)C3)cc2)CC1 (stereo not drawn)
580	Cc1cc(NC(=O)C(=O)NCCN2CCN(c3ccccc3F)CC2)no1
902	COc1cc(C(=O)N2CCC3(CC2)Nc2ccccc2-n2cccc23)cc(OC)c1OC
718	COCCNC(=O)NC1CCN(C2=NS(=O)(=O)C(c3cccc(Cl)c3)=C2C)CC1
651	CCOc1cc(-c2ccccc2)nc2ccc(NC(=O)NCC(=O)OC)cc12
605	CC(=O)NC(Cc1c[nH]c2ccccc12)C(=O)O (stereo not drawn)
836	Cc1noc(C)c1C1CCCN1C(=O)Nc1ccccc1Br (stereo not drawn)
790	CSc1ccc(CNC(=O)C2c3ccccc3CCN2C(C)=O)cc1 (stereo not drawn)
915	COc1ccc(N2CCN(CC(=O)Nc3ccc4c(c3)Cc3ccccc3-4)C2=O)cc1
804	N#Cc1cnc2ccc(F)cc2c1N1CCC(C(=O)Nc2ccc3c(c2)OCCO3)CC1
603	O=C(c1csc(C(=O)N2CCCC2)n1)N1CCN(Cc2ccccc2)CC1
1210	COC(=O)c1ccc2c(=O)n(Cc3ccc(F)cc3)c(N3CCCCC3)nc2c1
